From patent US10265276B2, “Pharmaceutical composition for preventing or treating arthritis or inflammatory disease containing 2-methoxy-4-(3-(4-methoxyphenyl)propyl-1-en-1-yl)phenol as active ingredient” (CHUNGBUK NATIONAL UNIVERSITY INDUSTRY-ACADEMIC COOPERATION …, priority 2015, dated 2019)
Where two headings read alike, the source gives them in different places.

What was measured:
STAT3 [1] = biological target: T1, STAT3 (Mus musculus, UniProt P42227); experiment: Pull-down assay, MMPP conjugated to Sepharose 6B beads; assay type: binding; conditions: recombinant STAT3 protein and cell lysate containing STAT3 from RAW 264.7 cells
T1 construct: a cell lysate containing a recombinant STAT3 protein or a STAT3 protein; endogenous in cells; host or cells: RAW 264.7
T1 sequence (P42227 whole entry): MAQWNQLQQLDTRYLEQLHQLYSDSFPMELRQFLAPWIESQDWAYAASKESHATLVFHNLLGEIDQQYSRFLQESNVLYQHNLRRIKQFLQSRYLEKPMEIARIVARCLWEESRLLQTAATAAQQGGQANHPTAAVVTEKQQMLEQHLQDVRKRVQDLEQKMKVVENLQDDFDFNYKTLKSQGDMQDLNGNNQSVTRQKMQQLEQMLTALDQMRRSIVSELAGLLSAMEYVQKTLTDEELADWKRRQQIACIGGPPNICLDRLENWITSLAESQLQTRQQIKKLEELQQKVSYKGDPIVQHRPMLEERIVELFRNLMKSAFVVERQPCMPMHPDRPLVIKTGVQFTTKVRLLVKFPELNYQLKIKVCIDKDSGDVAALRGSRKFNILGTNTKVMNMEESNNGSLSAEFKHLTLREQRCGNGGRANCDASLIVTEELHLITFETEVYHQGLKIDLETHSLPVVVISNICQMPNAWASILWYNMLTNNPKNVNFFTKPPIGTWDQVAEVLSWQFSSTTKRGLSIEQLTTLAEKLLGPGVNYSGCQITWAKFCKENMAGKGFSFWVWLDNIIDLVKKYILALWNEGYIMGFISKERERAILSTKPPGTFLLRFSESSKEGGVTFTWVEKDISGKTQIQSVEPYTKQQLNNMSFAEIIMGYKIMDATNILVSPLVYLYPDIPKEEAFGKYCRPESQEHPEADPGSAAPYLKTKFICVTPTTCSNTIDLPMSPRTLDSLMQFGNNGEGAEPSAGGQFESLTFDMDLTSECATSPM
Description: (§1) As a method for isolating a protein complex, a pull-down assay is an assay for checking a protein-protein interaction. To identify a protein interacting with MMPP, MMPP was bound to […] epoxy-activated Sepharose 6B (Sigma, St Louis, Mo., United States).
To check the interaction between MMPP and STAT3, a pull-down assay was carried out. MMPP was conjugated to epoxy-activated Sepharose 6B. A pull-down assay was performed using an interaction between a cell lysate containing a recombinant STAT3 protein or a STAT3 protein and MMPP conjugated to Sepharose 6B beads. […] Referring to FIG. 2(D), it can also be seen that the binding of MMPP to mutant STAT3 Thr456A was reduced, compared to the STAT3.

mutant STAT3 (T456A) = biological target: T2, mutant STAT3 (T456A) (Mus musculus, UniProt P42227, T456A); experiment: Pull-down assay with mutant STAT3; assay type: binding; conditions: compared to the STAT3
T2 construct: A coding region of Mus musculus STAT3 was amplified by PCR using full-length Mus musculus STAT3 cDNA as a template; host or cells: RAW264.7
T2 sequence (P42227 whole entry T456A): as the sequence (P42227 whole entry) above, with T456A counted along it
From the text: as §1
2. Construction of plasmid: A coding region of Mus musculus STAT3 was amplified by PCR using full-length Mus musculus STAT3 cDNA as a template. The purified PCR product was doubly digested with EcoRI and XhoI, and then subcloned into a pcDNA3.1 vector. The pcDNA3.1 plasmid includes a cytomegalovirus promoter, a pUC origin of replication, and an ampicillin-resistant gene. STAT3 (T456A) mutagenesis was performed at Cosmo Genetech Co., Ltd. (Seoul, Korea), and the mutations were systematically checked by sequencing. RAW264.7 cells were seeded in a 24-well plate at a density of 1×10^5 cells/well. The cells were grown for 24 hours to reach 90% confluence, and the cells were infected with the mutant STAT3 (T456A) plasmid (Cosmo Genetech Co., Ltd., Seoul, Korea) using a mixture of the plasmid and lipofectamine in PTI-MEN. The infected cells were treated with LPS (1 μg/mL), and different concentrations of MMPP (1 to 4 μg/mL) for 12 hours. The prepared samples were subjected to Western blotting.
To check the interaction between MMPP and STAT3, a pull-down assay was carried out. MMPP was conjugated to epoxy-activated Sepharose 6B. […]

RAW 264.7 cells = experiment: Anti-inflammatory effect in TNF-α-treated RAW 264.7 cells; assay type: cell-based, mouse; conditions: TNF-α (10 ng/mL), 24 hours
Description: 6. Nitrite assay: RAW 264.7 cells were added to a 96-well plate at a density of 1×10^4 cells/well, and LPS […] and TNF-α (10 ng/mL) were added or not added for 24 hours in the presence or absence of various concentrations of MMPP. Accumulation of nitrites in a supernatant was analyzed using a nitric oxide assay kit commercially available from iNtRON Biotechnology (Seongnam, Korea).
8. ROS Assay: An ROS assay was carried out using an ELISA kit (commercially available from Cell Biolabs Inc.).
In Experimental Example 7, an experiment regarding an anti-inflammatory effect of MMPP in TNF-α-treated RAW 264.7 cells was performed.
It was confirmed that, when RAW 264.7 cells were treated with TNF-α (10 ng/mL) in combination with MMPP […] for 24 hours, the NO and ROS generation (FIG. 8(A)), the iNOS and COX2 expression (FIG. 8(B)), and the STAT3 and NF-κB activities (FIGS. 8(C) and (D)) induced by treatment with TNF-α (10 ng/mL) were reduced in the RAW 264.7 cells.

NF-κB and STAT3 = experiment: EMSA and Western blotting of CAIA-induced ankle joint tissues; assay type: in vivo, mouse
Description: In addition, the DNA binding activities of NF-κB and STAT3 were determined by EMSA. The same amount of the total proteins (20 μg/Lane) was subjected to 10% SDS-PAGE, and STAT3, P-STAT3, p50, p65, IKK, 1 KB, and p-1lκB were detected through Western blotting. A β-actin protein or histone H was used as the control. As a result, it can be seen that MMPP inhibited the STAT3 DNA-binding activity (FIG. 12(A)), the NF-κB STAT3 DNA-binding activity (FIG. 12(B)), nuclear translocation of pSTAT3, p50 and p65, and phosphorylation of IkB, IKKb and IKKa in the CAIA-induced ankle joint tissues (FIGS. 12(C) and 12(D))

STAT3 [2] = experiment: Effect of STAT3 siRNA or STAT3 inhibitor on the effect of MMPP in LPS-treated RAW 264.7 cells; assay type: cell-based, mouse; design: dose or concentration left out as unconfirmed
Description: 11. Luciferase activity assay: RAW264.7 cells added to a 24-well plate at a density of 1×10^5 cells/well. After 90% confluence, the cells were transiently infected with STAT3 siRNA (Santa Cruz Biotechnology) or a mutant STAT3 (T456A) plasmid using a mixture of STAT3 siRNA (Santa Cruz Biotechnology) or a mutant STAT3 (T456A) plasmid and WelFect-EX PLUS in OPTI-MEN. The infected cells were treated with LPS (1 μg/mL) and different concentrations of MMPP (1 to 4 μg/mL) for 12 hours. The luciferase activity was measured using a luciferase assay kit (Promega, Madison, Wis., USA).
First, a protective effect of MMPP on the LPS-induced pro-inflammatory response was tested using RAW 264.7 cells infected with STAT3 siRNA.
The RAW 264.7 cells were infected with STAT3 siRNA. After 24 hours, the infected cells were then treated with […] of LPS alone or in combination with MMPP. Thereafter, the NO generation, the iNOS and COX2 expression, and the DNA binding activity of NF-κB were measured.
Next, it was examined whether an effect of a STAT3 inhibitor in RAW 264.7 cells was limited. RAW 264.7 cells were treated with a STAT3 inhibitor […] alone or in combination with MMPP, and the NO generation, the iNOS and COX2 expression, and the DNA binding activity of NF-κB were also measured.

COc1ccc(C/C=C/c2ccc(O)c(OC)c2)cc1 [MMPP, 2-methoxy-4-(3-(4-methoxyphenyl)prop-1-en-1-yl)phenol]
interaction with STAT3 in pull-down assay (STAT3 [1]): mediated the interaction
binding of MMPP to mutant STAT3 Thr456A (mutant STAT3 (T456A)): reduced
NO and ROS generation (RAW 264.7 cells): reduced
STAT3 and NF-κB activities (RAW 264.7 cells): reduced
iNOS and COX2 expression (RAW 264.7 cells): reduced
NF-κB STAT3 DNA-binding activity (NF-κB and STAT3): inhibited
STAT3 DNA-binding activity (NF-κB and STAT3): inhibited
nuclear translocation of pSTAT3, p50 and p65 (NF-κB and STAT3): inhibited
phosphorylation of IkB, IKKb and IKKa (NF-κB and STAT3): inhibited
inhibitory effect of MMPP on LPS-induced NO generation, iNOS and COX2 expression, and NF-κB activity (STAT3 [2]): completely limited
inhibitory effect of MMPP on LPS-induced NO generation, iNOS and COX2 expression, and NF-κB activity (STAT3 [2]; STAT3 knock-down cells (STAT3 siRNA)): limited
